Data on one compound can be found in publication PMC9481570, “A small molecule antagonist of SMN disrupts the interaction between SMN and RNAP II” (Nature Communications, 2022).

Common to all, as to assay: Affinity-purification and mass spectrometry (AP-MS) chemical proteomics, all proteins;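 for Difference: 200 µM free competitor with 20 µM biotin probe overnight in lysate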
Holding throughout (format): binding

The target of experiment [1] is T1, proteins displaced from immobilized biotin-Cmpd 1 pulldowns (U2OS cell lysate) (Homo sapiens, UniProt P25311).
T1 construct: endogenous in cells; host or cells: U2OS
As to conditions: GN=AZGP1 (P25311).

Experiment [2] addresses T2, proteins displaced from immobilized biotin-Cmpd 1 pulldowns (U2OS cell lysate) (Homo sapiens, UniProt Q01105).
T2 construct: endogenous in cells; host or cells: U2OS
As to conditions: GN=SET (Q01105).

Experiment [3] has as its target T3, proteins displaced from immobilized biotin-Cmpd 1 pulldowns (U2OS cell lysate) (Homo sapiens, UniProt P06493).
T3 construct: endogenous in cells; host or cells: U2OS
Particulars: GN=CDK1 (P06493).

Experiment [4] has as its target T4, proteins displaced from immobilized biotin-Cmpd 1 pulldowns (U2OS cell lysate) (Homo sapiens, UniProt Q96EY1).
T4 construct: endogenous in cells; host or cells: U2OS
As to conditions: GN=DNAJA3 (Q96EY1).

Experiment [5] has as its target T5, proteins displaced from immobilized biotin-Cmpd 1 pulldowns (U2OS cell lysate) (Homo sapiens, UniProt Q9Y6M1).
T5 construct: endogenous in cells; host or cells: U2OS
Particulars: GN=IGF2BP2 (Q9Y6M1).

The target in experiment [6] is T6, proteins displaced from immobilized biotin-Cmpd 1 pulldowns (U2OS cell lysate) (Homo sapiens, UniProt Q08945).
T6 construct: endogenous in cells; host or cells: U2OS
Particulars: GN=SSRP1 (Q08945).

Experiment [7] deals with T7, proteins displaced from immobilized biotin-Cmpd 1 pulldowns (U2OS cell lysate) (Homo sapiens, UniProt P16615).
T7 construct: endogenous in cells; host or cells: U2OS
As to conditions: GN=ATP2A2 (P16615).

Experiment [8] concerns the target T8, proteins displaced from immobilized biotin-Cmpd 1 pulldowns (U2OS cell lysate) (Homo sapiens, UniProt P42357).
T8 construct: endogenous in cells; host or cells: U2OS
As to conditions: GN=HAL (P42357).

Experiment [9] concerns the target T9, proteins displaced from immobilized biotin-Cmpd 1 pulldowns (U2OS cell lysate) (Homo sapiens, UniProt P09211).
T9 construct: endogenous in cells; host or cells: U2OS
Particulars: GN=GSTP1 (P09211).

Experiment [10] has as its target T10, proteins displaced from immobilized biotin-Cmpd 1 pulldowns (U2OS cell lysate) (Homo sapiens, UniProt Q96AG4).
T10 construct: endogenous in cells; host or cells: U2OS
As to conditions: GN=LRRC59 (Q96AG4).

Where “and” joins values, the source holds several entries; their conditions need not be identical. Equal values may be shown once.

T1 sequence (P25311 21-298): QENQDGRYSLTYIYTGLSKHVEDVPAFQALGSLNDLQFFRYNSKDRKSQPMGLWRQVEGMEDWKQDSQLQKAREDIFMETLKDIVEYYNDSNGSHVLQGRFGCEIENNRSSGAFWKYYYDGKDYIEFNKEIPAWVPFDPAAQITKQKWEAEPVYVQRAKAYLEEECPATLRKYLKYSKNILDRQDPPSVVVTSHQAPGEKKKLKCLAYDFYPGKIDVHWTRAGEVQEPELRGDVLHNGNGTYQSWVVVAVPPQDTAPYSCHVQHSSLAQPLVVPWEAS
T6 sequence (Q08945 whole entry): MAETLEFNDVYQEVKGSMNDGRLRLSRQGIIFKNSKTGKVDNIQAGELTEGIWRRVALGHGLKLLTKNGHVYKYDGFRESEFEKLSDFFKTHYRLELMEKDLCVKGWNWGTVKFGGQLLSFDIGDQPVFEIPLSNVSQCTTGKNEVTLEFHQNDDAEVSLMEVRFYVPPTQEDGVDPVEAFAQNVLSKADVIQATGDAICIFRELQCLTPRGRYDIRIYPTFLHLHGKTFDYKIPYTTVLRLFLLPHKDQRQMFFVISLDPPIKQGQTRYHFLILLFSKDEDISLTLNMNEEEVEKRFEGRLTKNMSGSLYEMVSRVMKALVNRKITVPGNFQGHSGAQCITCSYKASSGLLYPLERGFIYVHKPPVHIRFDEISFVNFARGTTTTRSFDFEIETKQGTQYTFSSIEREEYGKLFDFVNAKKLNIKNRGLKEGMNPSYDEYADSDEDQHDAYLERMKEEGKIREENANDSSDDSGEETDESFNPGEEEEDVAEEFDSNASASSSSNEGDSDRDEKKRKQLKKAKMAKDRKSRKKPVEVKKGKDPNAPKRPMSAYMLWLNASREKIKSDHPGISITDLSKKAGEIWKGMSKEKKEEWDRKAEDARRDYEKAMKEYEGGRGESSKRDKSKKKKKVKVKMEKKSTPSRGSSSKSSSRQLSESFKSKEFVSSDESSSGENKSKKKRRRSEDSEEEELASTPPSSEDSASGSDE
T4 sequence (Q96EY1 whole entry): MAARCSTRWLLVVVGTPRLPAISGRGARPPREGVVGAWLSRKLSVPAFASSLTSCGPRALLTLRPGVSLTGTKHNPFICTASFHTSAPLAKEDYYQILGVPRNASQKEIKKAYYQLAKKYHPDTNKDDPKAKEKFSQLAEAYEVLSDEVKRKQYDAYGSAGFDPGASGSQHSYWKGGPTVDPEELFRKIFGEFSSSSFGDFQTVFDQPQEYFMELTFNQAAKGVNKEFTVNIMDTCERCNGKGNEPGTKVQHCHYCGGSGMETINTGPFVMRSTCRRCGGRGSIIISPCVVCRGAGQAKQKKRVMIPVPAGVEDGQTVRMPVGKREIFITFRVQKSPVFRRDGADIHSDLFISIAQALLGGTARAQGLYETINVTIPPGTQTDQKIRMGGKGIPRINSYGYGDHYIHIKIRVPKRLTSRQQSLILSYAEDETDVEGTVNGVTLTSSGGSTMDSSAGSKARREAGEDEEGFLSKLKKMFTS
T9 sequence (P09211 whole entry): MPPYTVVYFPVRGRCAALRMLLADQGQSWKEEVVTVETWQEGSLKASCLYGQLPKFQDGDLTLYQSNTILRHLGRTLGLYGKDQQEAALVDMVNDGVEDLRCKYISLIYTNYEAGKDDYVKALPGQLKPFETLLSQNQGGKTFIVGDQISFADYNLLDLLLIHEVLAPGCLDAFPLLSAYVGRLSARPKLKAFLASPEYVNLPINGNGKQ
T10 sequence (Q96AG4 whole entry): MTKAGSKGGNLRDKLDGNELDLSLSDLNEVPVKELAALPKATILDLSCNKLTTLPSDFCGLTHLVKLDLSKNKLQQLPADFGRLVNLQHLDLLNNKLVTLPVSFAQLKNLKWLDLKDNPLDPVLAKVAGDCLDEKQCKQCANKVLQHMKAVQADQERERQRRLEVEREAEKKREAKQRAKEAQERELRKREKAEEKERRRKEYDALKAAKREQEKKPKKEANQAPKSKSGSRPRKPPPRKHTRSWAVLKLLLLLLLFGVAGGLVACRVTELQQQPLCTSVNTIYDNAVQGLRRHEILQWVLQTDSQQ
T8 sequence (P42357 whole entry): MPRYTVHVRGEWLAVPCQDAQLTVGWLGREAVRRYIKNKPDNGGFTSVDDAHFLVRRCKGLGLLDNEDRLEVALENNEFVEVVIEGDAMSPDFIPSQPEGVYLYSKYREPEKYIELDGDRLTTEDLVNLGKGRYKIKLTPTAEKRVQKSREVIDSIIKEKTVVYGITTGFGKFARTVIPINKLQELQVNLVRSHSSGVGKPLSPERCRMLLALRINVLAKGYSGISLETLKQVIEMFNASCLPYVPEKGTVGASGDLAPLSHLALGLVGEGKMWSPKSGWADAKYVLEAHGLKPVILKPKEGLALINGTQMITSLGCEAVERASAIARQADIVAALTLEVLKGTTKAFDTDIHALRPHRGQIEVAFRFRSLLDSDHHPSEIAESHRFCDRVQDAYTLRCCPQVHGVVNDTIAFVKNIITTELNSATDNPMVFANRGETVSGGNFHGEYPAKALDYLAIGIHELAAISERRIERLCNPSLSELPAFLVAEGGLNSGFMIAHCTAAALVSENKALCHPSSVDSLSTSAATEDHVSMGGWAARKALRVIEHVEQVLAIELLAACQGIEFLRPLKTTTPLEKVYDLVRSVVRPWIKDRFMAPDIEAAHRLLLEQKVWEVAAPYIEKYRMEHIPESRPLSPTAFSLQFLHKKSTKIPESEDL
T7 sequence (P16615 whole entry): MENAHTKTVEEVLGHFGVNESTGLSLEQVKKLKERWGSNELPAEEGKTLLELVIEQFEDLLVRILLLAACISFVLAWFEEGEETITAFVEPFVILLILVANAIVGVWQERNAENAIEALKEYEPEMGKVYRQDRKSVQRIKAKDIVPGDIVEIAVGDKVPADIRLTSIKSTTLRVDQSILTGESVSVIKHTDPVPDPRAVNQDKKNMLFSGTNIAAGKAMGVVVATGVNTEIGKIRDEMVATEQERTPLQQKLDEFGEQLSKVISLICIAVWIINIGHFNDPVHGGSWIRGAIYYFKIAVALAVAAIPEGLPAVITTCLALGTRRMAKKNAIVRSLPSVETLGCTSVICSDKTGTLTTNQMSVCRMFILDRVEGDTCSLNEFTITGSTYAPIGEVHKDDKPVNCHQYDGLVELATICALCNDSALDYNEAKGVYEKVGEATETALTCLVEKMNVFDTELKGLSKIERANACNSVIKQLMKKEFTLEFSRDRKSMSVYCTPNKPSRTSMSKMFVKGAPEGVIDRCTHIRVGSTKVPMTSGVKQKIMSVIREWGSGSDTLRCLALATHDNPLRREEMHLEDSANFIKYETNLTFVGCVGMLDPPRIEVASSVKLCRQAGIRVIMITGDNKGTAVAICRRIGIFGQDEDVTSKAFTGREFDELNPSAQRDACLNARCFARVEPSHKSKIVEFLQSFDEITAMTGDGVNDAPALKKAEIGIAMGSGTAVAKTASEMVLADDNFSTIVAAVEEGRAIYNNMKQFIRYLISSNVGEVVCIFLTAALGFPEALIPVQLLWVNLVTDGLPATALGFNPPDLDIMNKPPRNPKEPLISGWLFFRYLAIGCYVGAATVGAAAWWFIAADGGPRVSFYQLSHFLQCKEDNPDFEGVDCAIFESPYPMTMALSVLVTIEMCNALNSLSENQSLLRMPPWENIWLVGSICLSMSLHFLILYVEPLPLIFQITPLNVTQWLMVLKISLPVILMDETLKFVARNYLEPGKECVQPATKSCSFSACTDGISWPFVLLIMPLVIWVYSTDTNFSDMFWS
T5 sequence (Q9Y6M1 whole entry): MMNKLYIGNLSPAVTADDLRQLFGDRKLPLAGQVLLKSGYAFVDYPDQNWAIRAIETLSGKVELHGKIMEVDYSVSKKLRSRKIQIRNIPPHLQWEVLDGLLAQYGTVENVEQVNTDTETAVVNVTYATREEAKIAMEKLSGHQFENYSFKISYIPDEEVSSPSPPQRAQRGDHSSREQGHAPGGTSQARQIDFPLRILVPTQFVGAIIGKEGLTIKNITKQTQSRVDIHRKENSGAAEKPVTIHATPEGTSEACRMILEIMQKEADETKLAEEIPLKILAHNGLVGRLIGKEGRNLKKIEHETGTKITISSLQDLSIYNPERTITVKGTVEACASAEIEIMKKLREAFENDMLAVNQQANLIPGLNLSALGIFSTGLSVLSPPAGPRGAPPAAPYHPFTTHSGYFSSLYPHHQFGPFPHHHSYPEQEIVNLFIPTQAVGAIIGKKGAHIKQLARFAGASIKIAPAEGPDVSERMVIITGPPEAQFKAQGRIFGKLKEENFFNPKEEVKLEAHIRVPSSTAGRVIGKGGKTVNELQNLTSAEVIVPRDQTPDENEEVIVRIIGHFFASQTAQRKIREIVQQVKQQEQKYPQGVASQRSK
T2 sequence (Q01105 whole entry): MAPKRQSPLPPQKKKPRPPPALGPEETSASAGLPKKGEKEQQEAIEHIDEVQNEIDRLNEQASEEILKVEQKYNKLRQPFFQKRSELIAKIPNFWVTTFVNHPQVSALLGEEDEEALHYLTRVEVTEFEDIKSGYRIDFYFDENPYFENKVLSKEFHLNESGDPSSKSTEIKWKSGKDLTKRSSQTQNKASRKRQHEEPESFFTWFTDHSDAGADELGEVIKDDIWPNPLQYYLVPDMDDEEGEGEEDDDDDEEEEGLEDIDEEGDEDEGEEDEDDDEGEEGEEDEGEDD
T3 sequence (P06493 whole entry): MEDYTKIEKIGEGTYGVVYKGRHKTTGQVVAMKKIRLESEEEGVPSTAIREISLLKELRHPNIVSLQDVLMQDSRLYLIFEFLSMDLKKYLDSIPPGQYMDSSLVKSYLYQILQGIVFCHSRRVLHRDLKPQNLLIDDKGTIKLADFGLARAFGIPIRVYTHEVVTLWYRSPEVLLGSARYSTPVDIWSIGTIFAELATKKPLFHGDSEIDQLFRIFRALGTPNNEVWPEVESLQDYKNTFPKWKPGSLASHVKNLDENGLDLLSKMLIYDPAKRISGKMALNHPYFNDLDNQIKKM

In the case of `Cn1c2c(c(=N)c3c1CCC3)CCC2` [Compound 1, 4-methyl-2,3,4,5,6,7-hexahydrodicyclopenta[b,e]pyridin-8(1H)-imine], the Difference in [1] (Cmpd minus DMSO, -LOG(P-value) 0.92202) is given as -1.239; in experiment [2] (Cmpd minus DMSO, -LOG(P-value) 0.992199), 4.792; in experiment [3] (Cmpd minus DMSO, -LOG(P-value) 0.868994) it was -0.7208; in experiment [4] (Cmpd minus DMSO, -LOG(P-value) 0.746444), 0.8281; in [5] (Cmpd minus DMSO, -LOG(P-value) 0.946138) it was 1.759; in experiment [6] (Cmpd minus DMSO, -LOG(P-value) 0.732843), 0.3628. In addition, the Difference in experiment [7] (Cmpd minus DMSO, -LOG(P-value) 0.792118) is recorded as 1.325; in experiment [8] (Cmpd minus DMSO, -LOG(P-value) 1.13561), -1.443; in experiment [9] (Cmpd minus DMSO, -LOG(P-value) 0.706691), -2.301; in [10] (Cmpd minus DMSO, -LOG(P-value) 0.840063) it was -2.23. Besides, the “iBAQ Cmpd” value was 21.041 and 21.3151 and 19.6243 in experiment [1] (replicates 1-3); 21.3063 and 22.1737 and 20.6451 in [2] (replicates 1-3); 20.3513 and 19.7871 and 19.2381 in experiment [3] (replicates 1-3); 17.7043 and 17.5809 and 17.383 in experiment [4] (replicates 1-3); 20.2891 and 19.4609 and 19.6711 in experiment [5] (replicates 1-3); 19.198 and 18.7704 and 18.706 in experiment [6] (replicates 1-3). The “iBAQ Cmpd” value was 18.9227 and 18.7034 and 17.2331 in experiment [7] (replicates 1-3); 15.8179 and 16.0542 and 14.8398 in experiment [8] (replicates 1-3); 19.2888 and 14.7277 and 18.6327 in experiment [9] (replicates 1-3); 17.7382 and 14.7804 and 13.8761 in experiment [10] (replicates 1-3).
